The text below walks through data of BindingDB's records for doi:10.1021/jm00116a003 (Virginia Commonwealth University, 1992).

A short description of the first assay: The compound was tested for its binding affinity towards sigma receptor in guinea pig brain membranes.
Usually Ki stands for the dissociation constant of the complex between target and ligand, obtained from inhibition or displacement. Lower therefore signals tighter binding. For the compound `Clc1ccc(C2=CCN(CCCCc3ccccc3)CC2)cc1`, the Ki stood at 4.1 nM. In other words, the single-digit nanomolar range.

Assay in a further assay: as above
The source holds these as a separate data set.
`COc1ccccc1C1(O)CCNCC1` came in with a Ki of 14300 nM. In the case of `Clc1cccc(N2CCN(CCc3ccccc3)CC2)c1`, the affinity corresponds to a Ki of 11 nM. In the case of `FC(F)(F)c1cccc(N2CCN(CCCCc3ccccc3)CC2)c1`, affinity was put at a Ki of 5.4 nM.

Regarding `Clc1ccc(N2CCN(CCCc3ccccc3)CC2)cc1`, affinity was put at a Ki of 2.9 nM. On the same count and under the same terms, to `c1ccc(CCCCN2CCN(c3ccccc3)CC2)cc1` belongs 2.6 nM; to `c1ccc(CCCN2CCN(c3ccc4ccccc4c3)CC2)cc1`, 2.8 nM; to `O=C(c1ccccc1)N1CCNCC1`, 11400 nM.
